Measurements reported in patent publication US7829309B1, “Cell culture performance with betaine” (Immunex Corporation, priority 2002, dated 2010).
“Also recorded” adds a separate entry of the source.

Tests used:
[1] = tested on: TNFR-Fc producing cells (CHO cell lines); experiment: Betaine in 1 L bioreactor cultures of TNFR-Fc producing CHO cells at production osmolality; assay type: cell-based, Chinese hamster
Description: TNFR-Fc production in some CHO cell lines results in greater quantities of recombinant protein product but with lower viability than other cell lines during the final days of the run. The decreased viability correlates with increased protease activity in the culture supernatant, a result of dying cells releasing proteases into the media, which decreases stability of the final purified product. The current study was performed to determine if betaine could prolong viability at production osmolality (250-280 mOsm initial value).
The bioreactors used for this study were stirred vessels with a 1 liter working volume, with temperature, pH and dO2 control. The medium was serum-free with bicarbonate, IGF-1 (LongR3; GroPep, Australia), intralipids and peptones added. Betaine was added to 1 L bioreactor cultures of TNFR-Fc producing cells at 0, 10, 20, 30, and 40 mM with the osmolality of each culture adjusted to 270 to 280 mOsm with an appropriate amount of NaCl. The reactors were induced to express recombinant protein on day 2 by reducing the temperature and adding butyrate to 0.5 mM. Daily samples were taken for analysis of metabolic and productivity parameters.
The ability of induced cells to produce TNFR:Fc was not decreased in the presence of betaine.

cell cultures = conditions: physiological osmolality, 292 mOsm/kg; cited from earlier work

SMILES: C[N+](C)(C)CC(=O)O [betaine]
- cell viability (viable cells as percentage of living cells over total cells, trypan blue exclusion; VCD profiles) ([1]; betaine 0, 10, 20, 30, 40 mM, serum-free medium, osmolality 270 to 280 mOsm, most noticeable after day 5 (FIG. 1)): increases cell viability; also recorded: positive effect on cell viability
- concentration dependence of the viability effect ([1]; betaine 10-40 mM, higher concentrations than 30 mM did not increase viability as much): titration effect up to 30 mM
- ability of induced cells to produce TNFR:Fc ([1]; in the presence of betaine, induced on day 2 by reduced temperature and 0.5 mM butyrate): not decreased
- increase in percentage of secreted recombinant polypeptide having the desired conformation (native conformation and dimerized) ([1]; in the presence of betaine, measured by hydrophobic interaction chromatography (HIC) against known controls): 17.7%
- effect on cell culture growth or maximum viable cell concentration (cell cultures): no effect
